Values of other authors as cited in US20040265272A1, “Mammalian cell-infecting virus vector encoding epitope-bound beta2m and utilization thereof” (priority 2001, published 2004).

Tested on: CTL
Settings: HLA-A24- or HLA-A26-restricted peptide; cancer patients

Substance	CTL induction
SART-1 690-698: HLA-A24-restricted peptide of the SART-1 antigen (EYRGFTQDF; UniProt O43290 690-698, looked up, fragment)	strongly induced CTL
SART-1 736-744: HLA-A26-restricted peptide of the SART-1 antigen (KGSGKMKTE; UniProt O43290 736-744, looked up, fragment)	induced CTL in cancer patients with HLA-A2601, -A2602, or -A2603
